Key:
[1] = molecular target: T1, NAD+ probe NADS1.2 (mScarlet mutant-LigA mutant-cpNluc mutant fusion), SEQ ID NO. 7; LigA mutant 1 (DNA ligase LigA mutant), SEQ ID NO. 3 (Enterococcus faecalis, UniProt Q837V6, D286N/K120L/R163D/R68N); test: Response of NAD+ molecular probe NADS1.2 to NAD+ and different NAD+ analogs; format: binding; conditions: for response of probe / dynamic range of probe response: NADS1.2, NAD+ analogs, 590/440 nm ratio; for dynamic range of probe response: in words
T1 construct: purified BRET probe NADS1.2

[2] = tested on: NAD+ molecular probe NAD1.2; test: Response of NAD+ molecular probe to different NAD+ analogs (590/440 ratio titration); format: biochemical; conditions: FIG. 4
Experimental: (2) Add 80 μL of probe solution, 10 μL of NAD+ solution or 10 μL of NAD+ analogs solution, and 10 μL of bioluminescent substrate solution into the white 96-well elisa plate, blowing, suction, and mix immediately several times (at least 8 times) with multi-channel pipette; use Flex Station3 multifunctional microplate reader to read the light intensity values at the wavelengths of 440 nm and 590 nm under the luminescence mode, and monitor the values for 5 min continuously, and the average receptor-to-donor luminescence ratio is calculated for this time period.

[3] = tested on: HEK293 stably transfected cell line; test: Intracellular NAD+ change in HEK293 cell line stably expressing probe NADS1.0 (590/440 emitted light ratio); format: cell-based; conditions: final concentration 10 nM, 24 h treatment
Experimental: The NAD+ molecular probe provided by the invention can detect changes in the concentration of NAD+ molecules in cells. The coding gene of this probe (NADS1.0) is cloned into the pCDH-CMV-MCS-EF1-Neo vector, and the HEK293 stably transfected cell line is prepared using lentiviral method. […] After 24 h of treatment with the compounds, the DMEM medium (high sugar, phenol red free) is changed to fresh DMEM medium (high sugar, phenol red free, bioluminescent substrate diluted by 1,000-fold) with bioluminescent substrate. The emitted light intensity at 590 nm and 440 nm is measured using Flex Station3 multifunctional microplate reader. According to the detection principle of the probe, the ratio of emitted light intensity at 590 nm and 440 nm indicates the NAD+ concentration in living cells. It is found in the detection that the ratio decreased in cells treated with FK866, indicating a decrease in intracellular NAD+ concentration, while in the NRH-treated cells, the ratio increased, indicating an increase in intracellular NAD+ concentration.

[4] = molecular target: T2, NAD+ probe NADS2.0 (mNeoGreen mutant-LigA mutant-cpNluc mutant fusion), SEQ ID NO. 9; LigA mutant SEQ ID NO. 3 (Enterococcus faecalis, UniProt Q837V6, D286N/K120L/R163D/R68N); test: NAD+ titration of purified BRET probe NADS2.0; format: binding; conditions: 515/440 nm light intensity ratio
T2 construct: purified BRET probe NADS2.0
Description: The sequence of NADS^2.0 is shown as SEQ ID NO. 9
mNeoGreen mutant-LigA mutant-cpNluc mutant
The sequence of LigA1 mutant is shown as SEQ ID NO.

[5] = molecular target: T3, NAD+ probe NADS3.0 (mScarlet mutant-LigA mutant-mNeoGreen mutant fusion), SEQ ID NO. 11; LigA mutant 1 SEQ ID NO. 3 (Enterococcus faecalis, UniProt Q837V6, D286N/K120L/R163D/R68N); test: NAD+ titration of purified FRET probe NADS3.0; format: binding; conditions: 585/515 nm ratio, excitation 470 nm
T3 construct: purified FRET probe NADS3.0
Description: The sequence of NADS3.0 is shown as SEQ ID NO. 11
mScarlet mutant-LigA mutant-mNeoGreen mutant
The sequence of LigA mutant 1 is shown as SEQ ID NO.

T1 sequence (Q837V6 6-317 R68N/K120L/R163D/D286N): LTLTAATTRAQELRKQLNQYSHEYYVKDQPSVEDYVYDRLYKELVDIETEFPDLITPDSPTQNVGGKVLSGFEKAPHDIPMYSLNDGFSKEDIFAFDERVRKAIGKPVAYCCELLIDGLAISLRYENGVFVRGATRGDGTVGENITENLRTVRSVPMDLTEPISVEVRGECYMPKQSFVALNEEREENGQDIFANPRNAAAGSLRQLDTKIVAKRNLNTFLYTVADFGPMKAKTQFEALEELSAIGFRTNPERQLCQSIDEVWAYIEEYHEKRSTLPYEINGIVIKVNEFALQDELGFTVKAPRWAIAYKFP
T2 sequence (Q837V6 6-317 R68N/K120L/R163D/D286N): as above
T3 sequence (Q837V6 6-317 R68N/K120L/R163D/D286N): as above

**Q.** Which EC50 [1] does the source give for `NC(=O)C1=CN([C@@H]2O[C@H](COP(=O)(O)OP(=O)(O)OC[C@H]3O[C@@H](n4cnc5c(N)ncnc54)[C@H](O)[C@@H]3O)[C@@H](O)[C@H]2O)C=CC1` [NADH] here?
**A.** > 1000 µM

**Q.** `NC(=O)C1=CN([C@@H]2O[C@H](COP(=O)(O)OP(=O)(O)OC[C@H]3O[C@@H](n4cnc5c(N)ncnc54)[C@H](OP(=O)(O)O)[C@@H]3O)[C@@H](O)[C@H]2O)C=CC1` [NADPH] was tested. Which response of probe [1] did it give?
**A.** did not respond

**Q.** `NC(=O)c1ccc[n+]([C@@H]2O[C@H](COP(=O)([O-])OP(=O)(O)OC[C@H]3O[C@@H](n4cnc5c(N)ncnc54)[C@H](OP(=O)(O)O)[C@@H]3O)[C@@H](O)[C@H]2O)c1` [NADP+] was tested. Which “dynamic range of the probe response to the analog” value [2] did it give?
**A.** small

**Q.** And the “dynamic range of probe response” value [1]?
**A.** small dynamic range

**Q.** `O=C(/C=C/c1cccnc1)NCCCCC1CCN(C(=O)c2ccccc2)CC1` [FK866] was tested. Which “ratio of emitted light intensity at 590 nm and 440 nm (indicates intracellular NAD+ concentration)” value [3] did it give?
**A.** decreased

**Q.** Which “dynamic range of the probe response to the analog” value [2] does the source give for `NC(=O)c1ccc[n+]([C@@H]2O[C@H](COP(=O)([O-])O)[C@@H](O)[C@H]2O)c1` [NMN] here?
**A.** small

**Q.** What about the “dynamic range of probe response” value [1] of the same molecule?
**A.** small dynamic range

**Q.** `NC(=O)c1cccnc1` [NAM] was tested. Which response of probe [1] did it give?
**A.** did not respond

**Q.** How did the dynamic range [4] turn out when `NC(=O)c1ccc[n+]([C@@H]2O[C@H](COP(=O)([O-])OP(=O)(O)OC[C@H]3O[C@@H](n4cnc5c(N)ncnc54)[C@H](O)[C@@H]3O)[C@@H](O)[C@H]2O)c1` [NAD+] was run?
**A.** 1.8 fold

**Q.** What about the dynamic range [5] of the same molecule?
**A.** 1.21 fold

Reference: patent US20260275323A1, “FULLY GENETICALLY ENCODED NAD+PROTEIN PROBE BASED ON RESONANCE ENERGY TRANSFER,AND PREPARATION METHOD THEREFOR AND USE THEREOF” (SHENZHEN INSTITUTES OF ADVANCED TECHNOLOGY, priority 2021, published 2026)
